The text below walks through data of paper PMC7329812 (Scientific Reports, 2020).

Read-outs that look alike come from different tables or passages of the source.

As a reminder, the IC50 is the midpoint of a concentration-inhibition curve. The term inhibition denotes the relative decrease from the control value, in per cent.

For one test, the target named is NaChBac (Halalkalibacterium halodurans (Bacillus halodurans), UniProt Q9KCR8). Briefly: cell-based. The class given is cell-based. The following applies: for inhibition at 7 µM: HEK293, read-out: inhibition of WT NaChBac peak currents.
The next test has as its target human NaV1.7 (Homo sapiens, UniProt Q15858). Briefly: cell-based. The class given is cell-based.
Another test relates to F224A NaChBac. The format is cell-based, Bacillus halodurans. The following applies: for effect on F224A NaChBac channel currents: 7 µM.
In another test the test system is F227A NaChBac. The class given is cell-based, Bacillus halodurans.

human NaV1.7, sequence (Q15858 whole entry): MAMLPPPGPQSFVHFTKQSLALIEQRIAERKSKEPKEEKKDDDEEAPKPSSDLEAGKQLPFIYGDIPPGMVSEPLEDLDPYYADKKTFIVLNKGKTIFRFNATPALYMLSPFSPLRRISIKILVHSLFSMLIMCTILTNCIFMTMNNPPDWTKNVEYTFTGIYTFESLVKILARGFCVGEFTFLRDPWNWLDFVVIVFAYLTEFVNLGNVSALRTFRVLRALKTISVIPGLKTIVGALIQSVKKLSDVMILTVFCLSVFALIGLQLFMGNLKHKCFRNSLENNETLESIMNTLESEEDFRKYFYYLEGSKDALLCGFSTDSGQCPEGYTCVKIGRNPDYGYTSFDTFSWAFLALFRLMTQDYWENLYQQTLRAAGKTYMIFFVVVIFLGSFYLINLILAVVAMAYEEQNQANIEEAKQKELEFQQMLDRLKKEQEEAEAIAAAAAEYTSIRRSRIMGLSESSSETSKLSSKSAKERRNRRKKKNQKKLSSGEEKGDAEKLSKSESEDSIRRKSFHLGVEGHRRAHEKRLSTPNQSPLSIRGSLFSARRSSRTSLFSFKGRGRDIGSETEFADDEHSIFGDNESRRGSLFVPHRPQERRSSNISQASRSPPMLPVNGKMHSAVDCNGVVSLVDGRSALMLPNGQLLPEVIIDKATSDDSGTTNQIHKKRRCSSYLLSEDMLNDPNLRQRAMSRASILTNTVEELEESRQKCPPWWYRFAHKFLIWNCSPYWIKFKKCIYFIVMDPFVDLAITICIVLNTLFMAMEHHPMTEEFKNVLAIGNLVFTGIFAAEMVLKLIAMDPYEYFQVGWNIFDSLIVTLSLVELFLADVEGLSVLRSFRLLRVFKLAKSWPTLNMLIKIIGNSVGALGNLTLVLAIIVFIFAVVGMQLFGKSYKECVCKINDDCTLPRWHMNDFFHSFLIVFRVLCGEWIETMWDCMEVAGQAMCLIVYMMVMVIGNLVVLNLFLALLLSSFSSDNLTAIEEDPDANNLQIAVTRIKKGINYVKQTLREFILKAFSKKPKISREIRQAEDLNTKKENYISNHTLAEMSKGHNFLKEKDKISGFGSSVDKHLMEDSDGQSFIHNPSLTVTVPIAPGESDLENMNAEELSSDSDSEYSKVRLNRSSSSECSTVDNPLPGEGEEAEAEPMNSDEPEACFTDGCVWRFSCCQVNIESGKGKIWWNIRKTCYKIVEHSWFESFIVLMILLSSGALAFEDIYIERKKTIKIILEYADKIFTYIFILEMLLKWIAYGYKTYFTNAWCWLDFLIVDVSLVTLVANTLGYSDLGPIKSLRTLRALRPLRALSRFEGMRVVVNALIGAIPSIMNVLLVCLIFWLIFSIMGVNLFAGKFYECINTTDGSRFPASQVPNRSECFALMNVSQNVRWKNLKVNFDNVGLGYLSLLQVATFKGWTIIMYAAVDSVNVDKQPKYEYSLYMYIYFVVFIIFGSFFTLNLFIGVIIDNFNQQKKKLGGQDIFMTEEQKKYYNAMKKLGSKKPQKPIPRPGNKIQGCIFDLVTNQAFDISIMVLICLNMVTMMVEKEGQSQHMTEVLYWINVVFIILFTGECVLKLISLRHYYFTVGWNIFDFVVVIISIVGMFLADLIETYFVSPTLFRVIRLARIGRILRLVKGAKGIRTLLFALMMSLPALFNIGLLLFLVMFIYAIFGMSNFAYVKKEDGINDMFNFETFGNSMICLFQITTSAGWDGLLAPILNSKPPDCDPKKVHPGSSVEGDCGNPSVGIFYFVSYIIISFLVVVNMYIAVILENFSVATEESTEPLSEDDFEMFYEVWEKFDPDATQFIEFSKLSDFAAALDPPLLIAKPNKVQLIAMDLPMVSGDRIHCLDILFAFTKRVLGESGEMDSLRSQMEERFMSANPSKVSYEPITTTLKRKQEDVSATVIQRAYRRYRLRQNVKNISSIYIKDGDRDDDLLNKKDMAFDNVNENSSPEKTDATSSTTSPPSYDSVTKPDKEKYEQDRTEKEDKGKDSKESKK
NaChBac, sequence (Q9KCR8 1-274): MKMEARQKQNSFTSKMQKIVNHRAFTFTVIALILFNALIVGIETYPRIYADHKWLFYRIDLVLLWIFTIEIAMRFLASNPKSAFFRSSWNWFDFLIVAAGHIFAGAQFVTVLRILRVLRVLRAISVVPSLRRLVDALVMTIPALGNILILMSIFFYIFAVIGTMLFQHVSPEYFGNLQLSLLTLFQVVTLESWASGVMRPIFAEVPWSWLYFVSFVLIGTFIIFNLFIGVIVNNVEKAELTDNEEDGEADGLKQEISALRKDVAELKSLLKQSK

Consider `COc1cc(NC(=O)c2ccc(-c3ccc(Cl)cc3)o2)cc(OC)c1` [A-803467], for which, on NaChBac, the “% of block in NaChBac” value is -6.3±4.1% and the “effect on NaChBac channel currents” value is “no effects”.
With `CCN1C[C@]2(COC)[C@H](O)C[C@H](OC)[C@@]34[C@@H]5C[C@@]6(O)[C@H](OC(=O)c7ccccc7)[C@@H]5[C@@](OC(C)=O)([C@@H]([C@H](OC)[C@H]23)[C@@H]14)[C@@H](O)[C@@H]6OC` [Aconitine], on NaChBac, the “G–V slope factor k[n], NaChBac, after compound” value (shortened to “G–V slope factor k[n], NaChBac”) was 5.0 ± 0.2; the “Hill slope, NaChBac dose-response” value was found to be 1.0; the IC50 was 1.3 µM; the “effect on NaChBac channel currents” value is recorded as “significantly blocked peak inward Na^+ current”. In addition, the “block of NaChBac channel” value on NaChBac (2 µM) is given as ~ 50%. At NaChBac (7 µM), the inhibition at 7 µM is approximately 80%. In addition, on human NaV1.7, the “G–V slope factor k[n], NaV1.7, after compound” value was 6.7 ± 0.2; the “Hill slope, NaV1.7 dose-response” value is given as 1.6; the IC50 worked out at 7.4 µM. The “block of NaV1.7 channel” value on human NaV1.7 (7 µM) is recorded as ~ 50%. Besides, the “effect on F224A NaChBac channel currents” value with F224A NaChBac is “no effect”. In addition, in the test on F227A NaChBac (7 µM), the “effect on F227A NaChBac channel currents” value is given as “reduced effect”.
As to `Nc1c(Br)cc(Br)cc1CN[C@H]1CC[C@H](O)CC1` [Ambroxol], at NaChBac, the “G–V slope factor k[n], NaChBac” value stood at 5.7 ± 0.6 and the “effect on NaChBac channel currents” value was “robust inhibition”. Moreover, at NaChBac (hek 293 cells), the “% of block in NaChBac” value came out at 93.6±3.8%. Besides, on human NaV1.7, the “G–V slope factor k[n], NaV1.7, after compound” value stood at 6.7 ± 0.2 and the “effect on NaV1.7 channel currents” value is “robust inhibition”.
In the case of `CCCCN1CCCCC1C(=O)Nc1c(C)cccc1C` (stereo not shown) [Bupivacaine], on NaChBac (hek 293 cells), the “% of block in NaChBac” value is recorded as 46.6±2.9%.
As to `CCN(CC)CC(=O)Nc1c(C)cccc1C` [Lidocaine], the “G–V slope factor k[n], NaChBac” value at NaChBac was determined as 4.8 ± 0.4. Moreover, the “% of block in NaChBac” value on NaChBac (hek 293 cells) came to 74.1±2.3%. For the same compound, at human NaV1.7, the “G–V slope factor k[n], NaV1.7, after compound” value stood at 7.8 ± 0.2. Besides, in the test with F224A NaChBac, the “lidocaine block of F224A NaChBac channels versus WT” value is “decreased but still robust block”. Moreover, the “lidocaine block of F227A NaChBac channels versus WT” value with F227A NaChBac is “no change in block”.
Regarding `Cc1cccc(C)c1NC(=O)C1CCCCN1C` (stereo not shown) [Mepivacaine], the “% of block in NaChBac” value at NaChBac (hek 293 cells) is on record as 67.7±2.5%.
The same measure, in the same setting: in the case of `Cc1cccc(C)c1OCC(C)N` (stereo not shown) [Mexiletine] it was 74.2±1.8%.
Consider `Cc1cccc(C)c1NC(=O)CC12CCCN1CCC2` [Pilsicaineide], for which, at NaChBac, the “% of block in NaChBac” value was 50.5±2.7%.
Regarding `CC[N+](CC)(CC)CC(=O)Nc1c(C)cccc1C` [QX-314], the “% of block in NaChBac” value on NaChBac (hek 293 cells) was 16.2±2.6%.
Turning to `C[C@H](NCc1ccc(OCc2ccccc2F)cc1)C(N)=O` [Ralfinamide], at NaChBac (hek 293 cells), the “% of block in NaChBac” value is listed as 97.7±3.0%.
With `COc1ccccc1OCC(O)CN1CCN(CC(=O)Nc2c(C)cccc2C)CC1` (stereo not shown) [Ranolazine], the “% of block in NaChBac” value on NaChBac (hek 293 cells) is listed as 42.5±4.3%.
On the same count and under the same terms, in the case of `Cc1ccc(C(=O)C(C)CN2CCCCC2)cc1` (stereo not shown) [Tolperisone] it was 86.2±2.5%.
Take `COc1ccc(C(=O)O[C@H]2CC[C@@]3(C)[C@@H]4CC[C@H]5[C@]6(O)C[C@H](O)[C@@]7(O)[C@@H](CN8C[C@@H](C)CC[C@H]8[C@@]7(C)O)[C@]6(O)C[C@@]53O[C@]24O)cc1OC` [Veratridine]: on NaChBac, the “G–V slope factor k[n], NaChBac” value was 10.3 ± 0.3; the “Hill slope, NaChBac dose-response” value is on record as 0.3; the “effect on NaChBac channel currents” value was “significantly blocked peak inward Na^+ current”. For the same compound, at NaChBac (7 µM), the “ΔV1/2 of G–V curve, WT NaChBac” value came out at 7.7 ± 1.8 mV and the inhibition at 7 µM was 55.6 ± 2%. For the same compound, the “% of block in NaChBac” value at NaChBac (hek 293 cells) is 65.6±3.2%. Further, the IC50 at NaChBac (read-out: IC50 for NaChBac) was 8.1 µM. Further, in the test with F224A NaChBac, the “effect on F224A NaChBac channel currents” value was “minimal or no block”. In addition, in the test with F227A NaChBac (7 µM), the “inhibition of F227A NaChBac peak currents” value came out at 65.1 ± 1.7% and the “ΔV1/2 of G–V curve, F227A NaChBac” value was 20.1 ± 2.3 mV.
For `COc1ccc(CCN(C)CCCOc2nsc(-c3ccccc3)n2)cc1OC` [kc12291], the “% of block in NaChBac” value at NaChBac (hek 293 cells) is listed as 76.3±1.1%.
On the same count and under the same terms, to `NC(=O)N1c2ccccc2CC(=O)c2ccccc21` [oxcarbazepine] belongs 18.2±2.5%.
On to `NC1=N[C@H](O)[C@H]2[C@H]3O[C@]4(O)O[C@@H]([C@@H](O)[C@@]2(N1)[C@@H]4O)[C@]3(O)CO` [ttx, tetrodotoxin], for which, on NaChBac, the “% of block in NaChBac” value stood at 0.5±3.6% and the “effect on NaChBac channel currents” value was “did not significantly alter currents”.
Take GSMTx-4: the “% of block in NaChBac” value at NaChBac is -5.1±3.0%.
Same read-out and setting: to Huwentoxin-IV belongs -6.7±2.9%; to ProTx-I, -2.0±3.0%.
Regarding ProTx-II, on NaChBac, the “% of block in NaChBac” value stood at 7.7±3.3% and the “effect on NaChBac channel currents” value is “no effect”.
Regarding QX-222, at NaChBac, the “% of block in NaChBac” value came out at 15.3±2.7%.
